Measured values: PubChem BioAssay AID602211 (Sanford-Burnham Center for Chemical Genomics, 2012)
Active and inactive are the calls of the source.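 Rule for the calls: active = mean IC50 at or below 10 µM; inactive = the rest.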

The molecules below were run on H9c2 cardiomyocytes, H2O2 protection, ATPLite viability, 2 h (assay: H2O2-induced H9c2 cell death suppression – ATPLite luminescence, set 2, dose response (AID 602211);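 note: potency is for protection so actives keep ATP signal up against peroxide killing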).

SMILES	IC50
Cc1cc(C)c2c(N)c(C(=O)N/N=C/c3cccnc3)sc2n1	12.1 µM (inactive)
CC(=O)c1ccc(-c2cnc3c(NC=O)cc(-c4cccc(NS(C)(=O)=O)c4)cn23)cc1	8.18 µM
COc1ccc(-c2cc(C(=O)N(C)Cc3nc4ccccc4c(=O)[nH]3)c3ccccc3n2)cc1OC	1.71 µM
CCOC(=O)N1CCc2c(sc(NC(=O)CN3CCOCC3)c2C(=O)Nc2ccccc2)C1	39.9 µM (inactive)
C=C1C(C)C2C(Cc3ccccc3)NC(=O)C23OC(=O)/C=C/C(O)CCCC(C)C/C=C/C3C1O (stereo not given)	0.611 µM
COc1cc(-c2cc(C(=O)Nc3ccccc3N3CCOCC3)c3ccccc3n2)cc(OC)c1OC	5.8 µM
Cc1cc(C)c(S(=O)(=O)N2CCN(C(=O)c3cc(=O)[nH]c4ccccc34)CC2)c(C)c1	2.94 µM
COc1ccc(/C=N/NC(=O)c2cc(-c3ccc4c(c3)OCO4)n[nH]2)cc1OC	7.49 µM
CCOc1cc(/C=C(\C#N)C(=O)Nc2ccc(S(N)(=O)=O)cc2)ccc1OCCN1CCOCC1	8.4 µM
COc1cc(-c2cc(NC=O)c3ncc(-c4ccccc4)n3c2)cc(OC)c1OC	> 79 µM (inactive)
CC(=O)Nc1cc(-c2cccc(C(=O)N(C)C)c2)cn2c(-c3ccc(C(C)=O)cc3)cnc12	7.78 µM
O=C(Nc1ccccc1)c1nc[nH]c1C(=O)NCCCCCCNC(=O)c1[nH]cnc1C(=O)Nc1ccccc1	5.52 µM
C[C@@H]1CN([C@@H](C)CO)C(=O)c2cc(NC(=O)Nc3ccccc3)ccc2O[C@H]1CN(C)C(=O)Nc1cccc2ccccc12	8.2 µM
COc1cccc(Nc2nc(-c3sc(NC(=O)c4ccco4)nc3C)cs2)c1	7.15 µM
CCOc1cccc(Nc2cc3n(c(=O)n2)CCc2cc(OC)c(OC)cc2-3)c1	23 µM (inactive)
O=C(c1ccc(-c2nc3ccccc3s2)o1)N1CCN(c2ccccc2O)CC1	5.48 µM
NC(=O)c1oc2ccccc2c1NC(=O)c1ccco1	21.4 µM (inactive)
Cc1cc(NC(=O)C2CCCCC2)nc2c1c(=O)oc1ccccc12	23.7 µM (inactive)
COc1ccc(CNn2c(-c3cccs3)nc3ccccc3c2=O)cc1OC	7.18 µM
Cc1ncc(CO)c2cc(C(=O)Nc3ccccc3Cl)c(=Nc3cccc(C(N)=O)c3)oc12	0.51 µM
COC(=O)c1ccc(N)c(N=CC2=C(O)CC(C)(C)CC2=O)c1	7.63 µM
Cn1nc(C(=O)Nc2nc(-c3ccccn3)cs2)c2ccccc2c1=O	6.13 µM
CCC(=O)Oc1cccc(C(=O)Nc2ccc(-c3nnc(-c4ccco4)o3)cc2)c1	> 79 µM (inactive)
CS(=O)(=O)Nc1cccc(NC(=O)c2cccc3c(-c4cccc(C(N)=O)c4)coc23)c1	3.61 µM

SMILES	IC50
CC(=O)c1ccc(-c2ccc(C(=O)Nc3nc(-c4ccccn4)cs3)o2)cc1	1.57 µM
O=C(COC(=O)c1cc(-c2cccnc2)nc2ccccc12)Nc1ccc(F)cc1F	17.8 µM (inactive)
CCOCCn1ccc2c(OCC(=O)Nc3cc(OC)ccc3OC)cccc2c1=O	5.23 µM
COC(=O)c1ccc2c(=O)[nH]c(COC(=O)c3[nH]c(C)c(C(C)=O)c3C)nc2c1	5.29 µM
C[C@H](NC(=O)c1nc[nH]c1C(=O)NCC(=O)OCc1ccccc1)c1ccccc1	1.6 µM
C[C@H](NC(=O)c1nc[nH]c1C(=O)NCC(=O)OCc1ccccc1)C(=O)OCc1ccccc1	26.2 µM (inactive)
Cc1ccc(NC(=O)c2cc(-c3cccs3)nc3ccccc23)nc1	8.28 µM
Cc1nc2c(c(=O)n1CCC1=CCCCC1)c1nc3ccccc3nc1n2/N=C/c1ccccc1	10.5 µM (inactive)
COc1ccc(CCCNC(=O)C2(C)Cc3c(-c4ccc(NC(C)=O)cc4)ccnc3O2)cc1 (stereo not given)	> 79 µM (inactive)
CCN(CC)C(=O)c1[nH]cnc1C(=O)NCC(=O)OCc1ccccc1	6.88 µM
COc1cc2c(C#CCCO)c(-c3ccsc3)oc(=O)c2cc1OC	2.04 µM
CC(C)(C)OC(=O)C[C@H]1C/C=C\C[C@H](CC(=O)N[C@H](CO)Cc2ccccc2)C(=O)N[C@H](Cc2ccccc2)COC1=O	6.31 µM
Cc1ccc2[nH]c(=O)c(CN(Cc3ccco3)S(=O)(=O)c3c(C)ccc4nsnc34)cc2c1	1.32 µM
COc1ccc(-c2cc(C(=O)N(C)Cc3ccc(OC)c(OC)c3OC)c3ccccc3n2)cc1OC	4.04 µM
CCN(CC(=O)Nc1ccc(OC)cc1)C(=O)c1cc(-c2cccs2)nn1-c1ccccc1	2.06 µM
CC(=O)c1ccc(-c2[nH]c3ccccc3c2CCN2C(=O)c3ccccc3C2=O)cc1	9.73 µM
CC(C)(C)NC(=O)c1cc(NC(=O)c2cccs2)cc(NC(=O)c2cccs2)c1	8.4 µM
COc1ccc(C(C(=O)NC2CCCC2)N(C(=O)c2snc(C(N)=O)c2N)c2cccc(O)c2)cc1 (stereo not given)	12.7 µM (inactive)
COC(=O)c1cc(NC(=O)Nc2cc(OC)ccc2OC)cc(C(=O)OC)c1	22.3 µM (inactive)
O=C(Nc1cccc(Cl)c1)c1nc[nH]c1C(=O)NCCCNC(=O)c1[nH]cnc1C(=O)Nc1cccc(Cl)c1	1.36 µM
CCOC(=O)C1CCN(C(c2cc3c(C)ccc(C)c3[nH]c2=O)c2nnnn2C2CCCCC2)CC1 (stereo not given)	> 79 µM (inactive)
CC(C)(C)NC(=O)c1cccc(NC(=O)c2ccc(NC(=O)c3ccco3)cc2)c1	> 79 µM (inactive)
Cc1cc(C)c(C)c(S(=O)(=O)N2CCN(C(=O)c3cc(=O)[nH]c4ccccc34)CC2)c1C	0.998 µM
CCOc1ccc(C(C(=O)NC2CCCC2)N(C(=O)c2snc(C(N)=O)c2N)c2cccc(O)c2)cc1 (stereo not given)	3.28 µM

SMILES	IC50
O=C(NCCN1CCOCC1)c1cnn2c(-c3ccccc3)cc(-c3ccccc3)nc12	> 79 µM (inactive)
COCc1c(C(=O)Nc2ccc3nc(N4CCOCC4)sc3c2)oc2ccccc12	> 79 µM (inactive)
COc1ccc(C=NNc2nc3c([nH]2)c(=O)n(C)c(=O)n3C)cc1	5.8 µM
Cc1c(OCC(=O)NCCN2CCOCC2)ccc2c1oc(=O)c1ccccc12	5.33 µM
COc1ccc(-n2cc(-c3ccccc3)c3c(N4CCOCC4)ncnc32)cc1	4.02 µM
COc1cccc(NC(=O)c2oc3ccc(S(=O)(=O)N4CCOCC4)cc3c2C)c1	1.98 µM
COc1ccccc1CN(C)C(=O)c1cc(-c2cc(OC)c(OC)c(OC)c2)nc2ccccc12	> 79 µM (inactive)
Cc1cccc(NC(=O)c2nc[nH]c2C(=O)NCC(=O)OCc2ccccc2)c1	3.54 µM
COc1cc(-c2nnc(-c3cc(-c4ccccc4)nc4ccccc34)o2)cc(OC)c1OC	4.14 µM
O=C(C(=O)N(Cc1ccccc1)Cc1ccccc1)c1c(-c2ccccc2)[nH]c2ccccc12	0.33 µM
Cc1cccc(NC(=O)c2nc[nH]c2C(=O)NCCCCNC(=O)c2[nH]cnc2C(=O)Nc2cccc(C)c2)c1	1.39 µM
CCOC(=O)C1CCCN(C(=O)CCC(=O)Nc2ccc3nc(N4CCOCC4)cc(C)c3c2)C1 (stereo not given)	> 79 µM (inactive)
CC(C)c1cc(N2CCN(C(=O)c3ccco3)CC2)n2c(nc3ccccc32)c1C#N	44.8 µM (inactive)
O=C1OCCN1C(=O)[C@H]1[C@H](c2ccc([N+](=O)[O-])cc2)C(c2ccc(F)cc2)=NN1c1ccc(Br)cc1	3.09 µM
CCOc1cccc(-c2nn3c(-c4ccccn4)nnc3s2)c1	6.55 µM
COc1ccc(OC)c(/C=N/NC(=O)c2cc3c(OC)c(OC)ccc3[nH]2)c1	3.48 µM
CCOC(=O)c1cc(-c2nnc(-c3cc(OC)c(OC)c(OC)c3)o2)c(C)nc1C	2.25 µM
CCc1nc(N2CCN(C(=O)c3ccco3)CC2)c2oc3ccccc3c2n1	> 79 µM (inactive)
COc1ccccc1OCC(=O)N/N=C/c1cccc2cccnc12	14.1 µM (inactive)
COc1ccc(CCn2c(=N)c(C(=O)NCC3CCCO3)cc3c(=O)n4cccc(C)c4nc32)cc1OC (stereo not given)	2.6 µM
N#Cc1c(-c2ccco2)cc(-c2cccnc2)nc1N	11 µM (inactive)
CCC(c1nnnn1Cc1ccccc1)N1CCC(n2c(=O)[nH]c3ccccc32)CC1 (stereo not given)	> 79 µM (inactive)
Cn1c(=O)[nH]c(=O)c2c1nc(Br)n2CC(O)COc1ccc(Cl)cc1 (stereo not given)	2.44 µM
O=c1c2ccccc2nc2c3ccccc3c(NCCO)nn12	20.3 µM (inactive)

SMILES	IC50
O=C(CCCN1C(=O)c2cccc3cccc(c23)C1=O)N1CCN(c2ccccc2O)CC1	4.54 µM
COc1ccc(Cl)cc1-c1nc(-c2ccc(NC(=O)c3cccs3)cc2)no1	> 79 µM (inactive)
COc1cc(NC(=O)c2ccco2)c(C(=O)OCC(=O)c2c[nH]c3ccccc23)cc1OC	> 79 µM (inactive)
c1cc2[nH]snc2c2nc(C3CC3)nc12	7.56 µM
COc1ccc(CCNC(=O)c2cc3c(C)nccc3[nH]c2=O)cc1OC	7.47 µM
COc1ccccc1OCC(=O)Nc1cccc(-c2nnc(-c3ccco3)o2)c1	> 79 µM (inactive)
O=C(Nc1cccnc1)c1sc(Nc2ccccc2)nc1-c1ccccc1	8.72 µM
C[C@H](CO)N1C[C@H](C)[C@@H](CN(C)S(=O)(=O)c2ccccc2)Oc2ccc(NC(=O)Nc3ccccc3)cc2C1=O	16.6 µM (inactive)
COc1ccc2[nH]c(=O)c(CN(Cc3cccnc3)S(=O)(=O)c3ccccc3F)cc2c1	0.43 µM
NC(=O)COc1ccc2oc(=O)cc(-c3cc4ccccc4o3)c2c1	9.93 µM
COc1cccc(-c2cnc3c(NC=O)cc(-c4cccc(NC(C)=O)c4)cn23)c1	5.98 µM
COc1ccc(-c2cc(NC=O)c3ncc(-c4ccccc4)n3c2)cc1OC	> 79 µM (inactive)
COc1cccc(-c2nn3c(-c4ccccn4)nnc3s2)c1	6.65 µM
COc1cc(/C=N/NC(=O)NC23CC4CC(CC(C4)C2)C3)ccc1OCC(N)=O	2.84 µM
CC12CCC3C(CCC4CC(O)CCC43C)C1CC(O)C2 (stereo not given)	3.41 µM
O=C(CN1CCCCC1)Nc1nc(-c2ccc(F)c(F)c2)cs1	> 79 µM (inactive)
COc1nc(N/N=C/c2cc3c(cc2Br)OCO3)nc(N2CCOCC2)n1	11.9 µM (inactive)
Cc1cccc(NC(=O)c2oc3ccc(S(=O)(=O)N4CCOCC4)cc3c2C)c1C	3.23 µM
CCOC(=O)c1c(C)[nH]c(O)c1C=Nc1ccc(Cl)cc1	34.4 µM (inactive)
CSc1nc2ncc3c(n2n1)CC1c2ccccc2CCN1C3=O (stereo not given)	23 µM (inactive)
COc1ccccc1NC(=O)c1cc(-c2cc(OC)c(OC)c(OC)c2)nc2ccccc12	2.88 µM
Cc1nnc2ccc(-c3cccc(NC(=O)c4ccc(Cl)nc4)c3)nn12	2.62 µM
CNC(=O)c1cccc(NC(=O)c2cc(-c3ccccc3)nc3c2cnn3C(C)C)c1	> 79 µM (inactive)
